Legend:
U-87 MG [1] = experiment: Antitumor activity against human U-87 MG cells xenografted in BALB/c mouse assessed as tumor growth inhibition at 10 mg/kg, po qd for 16 days relative to control; assay type: functional, U-87MG ATCC; conditions: 384 h, time 16 day, read-out: TGI
Cytochrome P450 3A4 = Cytochrome P450 3A4 (Homo sapiens, UniProt P08684); experiment: Time-dependent inhibition of CYP3A4 in human liver microsomes at 10 uM in presence of NADPH by LC-MS/MS analysis; assay type: ADME
CYP2C19 = CYP2C19 (Homo sapiens, UniProt P33261); experiment: Inhibition of CYP2C19 in human liver microsomes at 10 uM measured after 20 mins in presence of NADPH by LC-MS/MS analysis relative to control; assay type: ADME
[2] = Cmax in Sprague-Dawley rat at 6 mg/kg, po by LC-MS/MS analysis; assay type: ADME, organism-based; design: route oral, dose 6 mg/kg; conditions: in vivo
CYP2D6 = CYP2D6 (Homo sapiens, UniProt P10635); experiment: Inhibition of CYP2D6 in human liver microsomes at 10 uM measured after 20 mins in presence of NADPH by LC-MS/MS analysis relative to control; assay type: ADME
[3] = Intrinsic clearance in rat liver microsomes at 1 uM preincubated for 10 mins followed by NADPH addition and measured after 1 hr by LC-MS/MS analysis; assay type: ADME, Microsome; conditions: time 70 min, read-out: CLH
CYP1A2 = target: T1, CYP1A2 (Homo sapiens, UniProt P05177); experiment: Inhibition of CYP1A2 in human liver microsomes at 10 uM measured after 20 mins in presence of NADPH by LC-MS/MS analysis relative to control; assay type: ADME
T1 sequence (P05177 whole entry): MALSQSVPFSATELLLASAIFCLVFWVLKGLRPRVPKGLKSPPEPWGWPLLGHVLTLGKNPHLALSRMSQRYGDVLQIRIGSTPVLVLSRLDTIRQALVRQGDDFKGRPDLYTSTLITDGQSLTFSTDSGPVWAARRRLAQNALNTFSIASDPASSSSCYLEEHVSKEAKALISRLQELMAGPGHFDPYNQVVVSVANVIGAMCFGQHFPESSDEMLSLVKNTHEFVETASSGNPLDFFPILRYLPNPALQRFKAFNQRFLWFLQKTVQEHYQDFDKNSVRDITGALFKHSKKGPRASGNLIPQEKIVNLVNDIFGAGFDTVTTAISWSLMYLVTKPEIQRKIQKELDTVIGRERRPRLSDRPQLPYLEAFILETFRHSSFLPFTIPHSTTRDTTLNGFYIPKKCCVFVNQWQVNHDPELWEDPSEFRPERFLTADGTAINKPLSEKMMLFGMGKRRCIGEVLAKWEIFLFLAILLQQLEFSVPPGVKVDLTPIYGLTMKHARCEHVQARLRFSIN

[4] = target: Cyclin-dependent kinase 7/ cyclin H (Homo sapiens, UniProt P50613); experiment: Inhibition of CDK7/cyclin H (unknown origin); assay type: protein-complex assay
Sequence of Cyclin-dependent kinase 7/ cyclin H (P51946 whole entry): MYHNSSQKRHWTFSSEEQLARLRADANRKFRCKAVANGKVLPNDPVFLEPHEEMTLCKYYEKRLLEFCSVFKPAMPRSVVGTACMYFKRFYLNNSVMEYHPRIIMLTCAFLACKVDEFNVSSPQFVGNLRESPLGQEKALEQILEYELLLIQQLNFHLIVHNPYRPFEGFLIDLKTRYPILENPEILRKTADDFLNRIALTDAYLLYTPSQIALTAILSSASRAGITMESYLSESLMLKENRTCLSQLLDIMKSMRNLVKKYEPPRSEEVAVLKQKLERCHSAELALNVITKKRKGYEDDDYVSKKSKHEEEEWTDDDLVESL
Sequence of Cyclin-dependent kinase 7/ cyclin H (P50613 whole entry): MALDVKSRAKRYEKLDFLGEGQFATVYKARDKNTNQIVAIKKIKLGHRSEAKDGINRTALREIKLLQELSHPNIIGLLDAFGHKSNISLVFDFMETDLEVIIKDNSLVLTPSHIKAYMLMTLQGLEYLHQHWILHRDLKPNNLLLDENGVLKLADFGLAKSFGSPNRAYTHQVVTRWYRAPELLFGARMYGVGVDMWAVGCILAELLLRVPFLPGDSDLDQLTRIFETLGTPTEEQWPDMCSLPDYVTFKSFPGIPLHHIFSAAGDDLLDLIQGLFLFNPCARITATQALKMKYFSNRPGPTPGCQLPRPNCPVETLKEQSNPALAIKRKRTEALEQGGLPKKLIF

COLO 205 [5] = experiment: Antiproliferative activity against human COLO 205 cells assessed as cell growth inhibition measured after 4 to 6 days by celltiter-glo luminescent cell viability assay; assay type: functional, cell-based
[6] = Oral bioavailability in BALB/c mouse at 10 mg/kg by LC-MS/MS analysis; assay type: ADME, organism-based; conditions: in vivo
[7] = AUC (0 to t) in Sprague-Dawley rat at 3 mg/kg, iv by LC-MS/MS analysis; assay type: ADME, organism-based; design: dose 3 mg/kg; conditions: in vivo
[8] = Toxicity in human U-87 MG cells xenografted BALB/c mouse assessed as body weight loss at 10 mg/kg, po qd for 16 days relative to control; assay type: organism-based; conditions: in vivo, 384 h, time 16 day
MDA-MB-468 = experiment: Antiproliferative activity against human MDA-MB-468 cells assessed as cell growth inhibition measured after 4 to 6 days by celltiter-glo luminescent cell viability assay; assay type: functional, cell-based
[9] = Volume of distribution at steady state in Sprague-Dawley rat at 3 mg/kg, iv by LC-MS/MS analysis; assay type: ADME, organism-based; conditions: in vivo, read-out: Vdss
[10] = Intrinsic clearance in human liver microsomes at 1 uM preincubated for 10 mins followed by NADPH addition and measured after 1 hr by LC-MS/MS analysis; assay type: ADME, Microsome; conditions: time 70 min, read-out: CLH
U-87 MG [11] = experiment: Antitumor activity against human U-87 MG cells xenografted in BALB/c mouse assessed as tumor growth at 10 mg/kg, po qd for 16 days relative to control; assay type: functional, U-87MG ATCC; conditions: time 16 day
[12] = AUC (0 to t) in BALB/c mouse at 10 mg/kg, po by LC-MS/MS analysis; assay type: ADME, organism-based; design: dose 10 mg/kg; conditions: in vivo
U-87 MG [13] = experiment: Antiproliferative activity against human U-87 MG cells assessed as cell growth inhibition measured after 4 to 6 days by celltiter-glo luminescent cell viability assay; assay type: functional, cell-based, U-87MG ATCC
COLO 205 [14] = experiment: Cell cycle arrest in human COLO 205 cells assessed as accumulation at G0/G1 phase at 200 nM measured after 24 hrs by propidium iodide staining based flow cytometry relative to control; assay type: functional
[15] = Half life in Sprague-Dawley rat at 3 mg/kg, iv by LC-MS/MS analysis; assay type: ADME, organism-based; conditions: in vivo
[16] = Half life in BALB/c mouse at 3 mg/kg, iv by LC-MS/MS analysis; assay type: ADME, organism-based; conditions: in vivo
[17] = Cmax in BALB/c mouse at 10 mg/kg, po by LC-MS/MS analysis; assay type: ADME, organism-based; design: route oral, dose 10 mg/kg; conditions: in vivo
[18] = Volume of distribution at steady state in BALB/c mouse at 3 mg/kg, iv by LC-MS/MS analysis; assay type: ADME, organism-based; conditions: in vivo, read-out: Vdss
CDK9/cyclin T1 = CDK9/cyclin T1 (Homo sapiens, UniProt P50750)
Sequence of CDK9/cyclin T1 (O60563 whole entry, the tested form may be a part): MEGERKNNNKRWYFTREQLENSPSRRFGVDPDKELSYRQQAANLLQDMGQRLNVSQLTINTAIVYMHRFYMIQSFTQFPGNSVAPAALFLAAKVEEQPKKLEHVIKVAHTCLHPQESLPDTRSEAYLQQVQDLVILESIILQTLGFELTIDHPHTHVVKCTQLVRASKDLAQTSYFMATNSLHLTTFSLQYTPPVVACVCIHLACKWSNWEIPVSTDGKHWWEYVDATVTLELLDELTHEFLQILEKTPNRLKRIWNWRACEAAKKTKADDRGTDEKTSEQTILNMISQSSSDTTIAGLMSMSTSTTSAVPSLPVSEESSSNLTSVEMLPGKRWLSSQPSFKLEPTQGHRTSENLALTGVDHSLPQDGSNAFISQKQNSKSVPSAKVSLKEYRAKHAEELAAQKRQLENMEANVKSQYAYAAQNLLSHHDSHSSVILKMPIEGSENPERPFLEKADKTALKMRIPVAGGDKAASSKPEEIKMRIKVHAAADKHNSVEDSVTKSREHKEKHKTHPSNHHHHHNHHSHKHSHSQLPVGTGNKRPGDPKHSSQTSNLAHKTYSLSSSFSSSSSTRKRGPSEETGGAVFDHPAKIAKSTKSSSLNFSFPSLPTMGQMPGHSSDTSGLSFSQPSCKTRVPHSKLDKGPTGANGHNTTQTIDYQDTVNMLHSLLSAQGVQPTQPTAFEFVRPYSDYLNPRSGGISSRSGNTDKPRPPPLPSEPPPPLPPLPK
Sequence of CDK9/cyclin T1 (P50750 whole entry, the tested form may be a part): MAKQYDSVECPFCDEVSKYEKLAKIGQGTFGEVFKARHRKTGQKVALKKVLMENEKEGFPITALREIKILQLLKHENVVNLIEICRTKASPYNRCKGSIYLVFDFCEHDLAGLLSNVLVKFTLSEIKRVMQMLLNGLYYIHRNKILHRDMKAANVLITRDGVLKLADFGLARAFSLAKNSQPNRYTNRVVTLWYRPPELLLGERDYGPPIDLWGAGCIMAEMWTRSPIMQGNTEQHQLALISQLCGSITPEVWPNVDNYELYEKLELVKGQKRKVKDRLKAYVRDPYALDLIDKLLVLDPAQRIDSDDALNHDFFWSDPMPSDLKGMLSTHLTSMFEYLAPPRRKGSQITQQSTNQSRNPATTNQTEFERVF
Description: Inhibition of CDK9/cyclin T1 (unknown origin)

CDK4/Cyclin D3 = CDK4/Cyclin D3 (Homo sapiens, UniProt P11802); experiment: Inhibition of recombinant human full-length N-terminal GST-fused CDK4 (1 to 303 residues)/GST-tagged CyclinD3 (1 to 292 residues) expressed in baculovirus expression system using ULight-elF4E-binding protein 1 peptide as substrate measured after 30 mins by LANCE assay
Sequence of CDK4/Cyclin D3 (P11802 whole entry, the tested form may be a part): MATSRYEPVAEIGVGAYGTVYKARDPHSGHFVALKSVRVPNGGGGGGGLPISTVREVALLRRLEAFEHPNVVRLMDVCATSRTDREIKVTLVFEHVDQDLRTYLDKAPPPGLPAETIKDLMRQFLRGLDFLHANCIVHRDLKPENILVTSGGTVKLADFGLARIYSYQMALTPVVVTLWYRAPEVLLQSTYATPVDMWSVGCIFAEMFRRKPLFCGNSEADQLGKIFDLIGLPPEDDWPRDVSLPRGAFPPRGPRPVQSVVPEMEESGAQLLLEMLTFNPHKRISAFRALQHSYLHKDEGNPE
Sequence of CDK4/Cyclin D3 (P30281 whole entry, further chain, the tested form may be a part): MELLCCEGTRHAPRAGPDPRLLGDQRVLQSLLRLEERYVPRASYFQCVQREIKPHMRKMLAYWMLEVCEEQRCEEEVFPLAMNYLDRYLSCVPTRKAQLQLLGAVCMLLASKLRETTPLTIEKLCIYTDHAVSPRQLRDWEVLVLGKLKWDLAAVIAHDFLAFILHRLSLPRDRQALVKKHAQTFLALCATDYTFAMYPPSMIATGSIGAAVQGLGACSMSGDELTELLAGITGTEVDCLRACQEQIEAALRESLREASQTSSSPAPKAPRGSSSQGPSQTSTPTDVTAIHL

[19] = Half life in BALB/c mouse at 10 mg/kg, po by LC-MS/MS analysis; assay type: ADME, organism-based; conditions: in vivo
Cytochrome P450 1A2 = target: T2, Cytochrome P450 1A2 (Homo sapiens, UniProt P05177); experiment: Time-dependent inhibition of CYP1A2 in human liver microsomes at 10 uM in presence of NADPH by LC-MS/MS analysis; assay type: ADME
T2 sequence (P05177 whole entry): T1 sequence (P05177 whole entry)

CDK6/Cyclin D3 = CDK6/Cyclin D3 (Homo sapiens, UniProt Q00534); experiment: Inhibition of human full-length N-terminal GST tagged CDK6 (1 to 326 residues)/GST-tagged cyclinD3 (1 to 292 residues) expressed in baculovirus expression system using ULight-elF4E-binding protein 1 peptide as substrate measured after 30 mins by LANCE assay
CDK2/Cyclin A2 = CDK2/Cyclin A2 (Homo sapiens, UniProt P24941)
Description: Inhibition of CDK2/cyclin A2 (unknown origin)

[20] = AUC (0 to t) in Sprague-Dawley rat at 6 mg/kg, po by LC-MS/MS analysis; assay type: ADME, organism-based; design: dose 6 mg/kg; conditions: in vivo
Cytochrome P450 2C9 = Cytochrome P450 2C9 (Homo sapiens, UniProt P11712); experiment: Time-dependent inhibition of CYP2C9 in human liver microsomes at 10 uM in presence of NADPH by LC-MS/MS analysis; assay type: ADME
Sequence of Cytochrome P450 2C9 (P11712 whole entry): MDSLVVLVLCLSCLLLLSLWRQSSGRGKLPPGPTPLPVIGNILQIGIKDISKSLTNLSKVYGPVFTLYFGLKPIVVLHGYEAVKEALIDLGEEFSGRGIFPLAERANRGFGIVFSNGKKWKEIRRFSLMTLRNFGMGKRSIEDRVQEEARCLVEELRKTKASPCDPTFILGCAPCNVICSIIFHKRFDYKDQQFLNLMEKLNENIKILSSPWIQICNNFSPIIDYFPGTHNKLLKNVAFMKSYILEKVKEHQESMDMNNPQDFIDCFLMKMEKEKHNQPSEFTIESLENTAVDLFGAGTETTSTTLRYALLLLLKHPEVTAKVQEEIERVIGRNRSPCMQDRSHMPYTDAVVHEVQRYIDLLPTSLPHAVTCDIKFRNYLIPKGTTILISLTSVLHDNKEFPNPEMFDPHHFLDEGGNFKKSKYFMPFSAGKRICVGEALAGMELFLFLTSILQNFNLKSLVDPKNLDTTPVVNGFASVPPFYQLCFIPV

[21] = Oral bioavailability in Sprague-Dawley rat at 6 mg/kg by LC-MS/MS analysis; assay type: ADME, organism-based; conditions: in vivo
[22] = AUC (0 to t) in BALB/c mouse at 3 mg/kg, iv by LC-MS/MS analysis; assay type: ADME, organism-based; design: dose 3 mg/kg; conditions: in vivo
CYP3A4 = CYP3A4 (Homo sapiens, UniProt P08684); experiment: Inhibition of CYP3A4 in human liver microsomes at 10 uM measured after 20 mins in presence of NADPH by LC-MS/MS analysis relative to control; assay type: ADME
Sequence of CYP3A4 (P08684 whole entry): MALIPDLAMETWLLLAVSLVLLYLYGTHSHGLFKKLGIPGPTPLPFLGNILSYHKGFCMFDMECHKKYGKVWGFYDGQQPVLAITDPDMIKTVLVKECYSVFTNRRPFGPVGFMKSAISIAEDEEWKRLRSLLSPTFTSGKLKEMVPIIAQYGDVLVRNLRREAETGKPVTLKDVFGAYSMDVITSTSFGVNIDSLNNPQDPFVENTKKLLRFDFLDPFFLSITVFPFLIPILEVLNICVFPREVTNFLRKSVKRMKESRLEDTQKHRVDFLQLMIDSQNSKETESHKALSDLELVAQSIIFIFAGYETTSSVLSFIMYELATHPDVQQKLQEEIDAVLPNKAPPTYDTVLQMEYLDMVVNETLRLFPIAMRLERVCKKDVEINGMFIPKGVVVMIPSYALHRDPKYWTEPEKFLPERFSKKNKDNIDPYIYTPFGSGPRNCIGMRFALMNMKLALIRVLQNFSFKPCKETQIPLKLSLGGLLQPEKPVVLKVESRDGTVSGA

[23] = target: Cyclin-dependent kinase 1/cyclin B1 (Homo sapiens, UniProt P06493)
Sequence of Cyclin-dependent kinase 1/cyclin B1 (P06493 whole entry): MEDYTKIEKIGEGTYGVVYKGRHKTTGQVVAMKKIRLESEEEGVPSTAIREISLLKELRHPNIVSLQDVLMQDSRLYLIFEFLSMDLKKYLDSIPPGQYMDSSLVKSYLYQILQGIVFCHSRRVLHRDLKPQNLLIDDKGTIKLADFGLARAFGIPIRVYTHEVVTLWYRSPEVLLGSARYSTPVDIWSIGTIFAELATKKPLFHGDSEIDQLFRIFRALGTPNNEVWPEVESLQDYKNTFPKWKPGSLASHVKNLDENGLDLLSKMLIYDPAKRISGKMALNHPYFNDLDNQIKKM
Sequence of Cyclin-dependent kinase 1/cyclin B1 (P14635 whole entry, further chain): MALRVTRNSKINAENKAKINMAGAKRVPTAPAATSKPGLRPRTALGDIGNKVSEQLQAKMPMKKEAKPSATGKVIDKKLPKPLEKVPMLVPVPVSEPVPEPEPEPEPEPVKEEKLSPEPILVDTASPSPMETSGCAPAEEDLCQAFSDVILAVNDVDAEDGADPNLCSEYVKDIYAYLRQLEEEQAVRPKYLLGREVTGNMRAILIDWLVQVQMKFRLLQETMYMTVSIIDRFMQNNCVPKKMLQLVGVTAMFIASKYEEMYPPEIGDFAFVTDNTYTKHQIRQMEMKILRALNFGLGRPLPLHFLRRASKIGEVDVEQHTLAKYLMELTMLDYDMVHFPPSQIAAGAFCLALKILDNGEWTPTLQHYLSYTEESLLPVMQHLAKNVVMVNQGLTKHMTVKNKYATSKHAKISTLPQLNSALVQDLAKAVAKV
Description: Inhibition of CDK1/cyclin B (unknown origin)

Cytochrome P450 2D6 = Cytochrome P450 2D6 (Homo sapiens, UniProt P10635); experiment: Time-dependent inhibition of CYP2D6 in human liver microsomes at 10 uM in presence of NADPH by LC-MS/MS analysis; assay type: ADME
[24] = Half life in Sprague-Dawley rat at 6 mg/kg, po by LC-MS/MS analysis; assay type: ADME, organism-based; conditions: in vivo
CYP2C9 = CYP2C9 (Homo sapiens, UniProt P11712); experiment: Inhibition of CYP2C9 in human liver microsomes at 10 uM measured after 20 mins in presence of NADPH by LC-MS/MS analysis relative to control; assay type: ADME
Sequence of CYP2C9 (P11712 whole entry): as the sequence (P11712 whole entry) above

Cytochrome P450 2C19 = Cytochrome P450 2C19 (Homo sapiens, UniProt P33261); experiment: Time-dependent inhibition of CYP2C19 in human liver microsomes at 10 uM in presence of NADPH by LC-MS/MS analysis; assay type: ADME

Sequence of Cytochrome P450 3A4 (P08684 whole entry): as the sequence (P08684 whole entry) above

Structure (SMILES): CC(=O)c1c(C)c2cnc(Nc3ccc(N4CCNCC4)cc3)nc2n2cc(C(C)(C)C)nc12
- inhibition in vivo at 10 mg/kg (U-87 MG [1]): 70%
- TDI (Cytochrome P450 3A4): Not Active
- inhibition at […], 10 µM (CYP2C19): 19%
- Cmax [2]: 170 ng/mL
- inhibition at […], 10 µM (CYP2D6): 7%
- microsomal CLint at 1 µM [3]: 6 µL/min/mg
- inhibition at […], 10 µM (CYP1A2): 17%
- IC50 [4]: 204 nM
- IC50 (COLO 205 [5]): 256 nM
- bioavailability [6]: 53.1%
- AUCt [7]: 1334 ng·h/mL
- Activity [8]: < 20%
- IC50 (MDA-MB-468): 984 nM
- Vd [9]: 35.7 L/kg
- microsomal CLint at 1 µM [10]: 6 µL/min/mg
- T/C (U-87 MG [11]): 37%
- AUC(0-t) [12]: 775 ng·h/mL
- IC50 (U-87 MG [13]): 49.3 nM
- Activity (COLO 205 [14]): 95.4%
- half-life [15]: 5.57 h
- half-life [16]: 4.64 h
- Cmax [17]: 570 ng/mL
- Vd [18]: 33.7 L/kg
- IC50 (CDK9/cyclin T1): 221 nM
- IC50 (CDK4/Cyclin D3): 2.7 nM
- half-life [19]: 3.68 h
- TDI (Cytochrome P450 1A2): Active
- IC50 (CDK6/Cyclin D3): 4.8 nM
- IC50 (CDK2/Cyclin A2): 60.3 nM
- AUC(0-t) [20]: 1780 ng·h/mL
- TDI (Cytochrome P450 2C9): Not Active
- bioavailability [21]: 66.9%
- AUCt [22]: 440 ng·h/mL
- inhibition at […], 10 µM (CYP3A4): 18%
- IC50 [23]: 2080 nM
- TDI (Cytochrome P450 2D6): Not Active
- half-life [24]: 4.44 h
- inhibition at […], 10 µM (CYP2C9): 12%
- TDI (Cytochrome P450 2C19): Not Active
